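Step 1: Grow cells in 96-well plates. Step 2: Expose to compound for 48 hours at 5 concentrations. Step 3: Interpolate endpoints linearly; if unreached, use highest concentration. At the TGI there is no net growth.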
Legend:
Assay in all cases: NCI tumour cell line growth inhibition, 48 h
DMS 273 small cell lung = tested on: DMS 273 small cell lung
P388 leukemia = tested on: P388 leukemia
MDA-MB-231 breast = tested on: MDA-MB-231 breast
SN12K1 renal = tested on: SN12K1 renal
M19-MEL melanoma = tested on: M19-MEL melanoma
P388/ADR leukemia = tested on: P388/ADR leukemia
HS 578T breast = tested on: HS 578T breast
XF 498 CNS = tested on: XF 498 CNS
HOP-18 NSCLC = tested on: HOP-18 NSCLC
DU-145 prostate = tested on: DU-145 prostate
MDA-N = tested on: MDA-N
RXF-631 renal = tested on: RXF-631 renal

| Structure (SMILES) | TGI (DMS 273 small cell lung) | TGI (P388 leukemia) | TGI (MDA-MB-231 breast) | TGI (SN12K1 renal) | TGI (M19-MEL melanoma) | TGI (P388/ADR leukemia) | TGI (HS 578T breast) | TGI (XF 498 CNS) | TGI (HOP-18 NSCLC) | TGI (DU-145 prostate) | TGI (MDA-N) | TGI (RXF-631 renal) |
| --- | --- | --- | --- | --- | --- | --- | --- | --- | --- | --- | --- | --- |
| COc1cc(/C=C/C(=O)Oc2ccccc2)ccc1C(=O)O/C=C/c1ccccc1 | > 100 µM | > 100 µM | > 100 µM | > 100 µM | > 100 µM | > 100 µM | > 100 µM | > 100 µM | > 100 µM | > 100 µM | > 100 µM | – |
| O=C1c2ccccc2C(=O)N1C/C=N/NS(=O)(=O)c1ccc(Br)cc1 | > 100 µM | – | – | – | > 100 µM | – | – | > 100 µM | > 100 µM | – | – | > 100 µM |
| CS(=O)(=O)CS(=O)(=O)OCCCl | 995 µM | 306 µM | 918 µM | 963 µM | 937 µM | 447 µM | 1790 µM | – | 1380 µM | 748 µM | 470 µM | – |
| C[Si](C)(C)CN1C(=O)c2ccccc2C1(O)c1ccccc1 (centres undefined) | > 100 µM | – | – | – | – | – | – | > 100 µM | > 100 µM | – | – | > 100 µM |
| COc1cc(-c2nnc3n2NC=C(C(=O)O)S3)cc(OC)c1OC | > 82.9 µM | – | – | – | > 100 µM | – | – | > 100 µM | > 100 µM | – | – | > 100 µM |
| O=C1C2[C@@H](C(=O)N1c1ccc(Br)cc1)C13C(=CC2([N+](=O)[O-])[C@@H]2C(=O)N(c4ccc(Br)cc4)C(=O)[C@@H]21)c1ccccc1N3c1ccccc1 (some centres undefined) | – | – | – | – | > 100 µM | – | – | > 100 µM | > 100 µM | – | – | > 100 µM |
| Cc1c(Cl)cccc1NC(=O)c1cccc([N+](=O)[O-])c1O | 79.8 µM | – | – | – | 48 µM | – | – | 38.8 µM | > 28.9 µM | – | – | > 100 µM |
| CCOc1ccc(N=Cc2c3ccccc3nc3ccccc23)cc1 | > 100 µM | – | – | – | > 100 µM | – | – | > 100 µM | > 100 µM | – | – | > 100 µM |
| COc1ccc2nc3cc(Cl)ccc3c(Sc3ccc(NC(C)=O)cc3)c2c1 | 21.6 µM | – | – | – | > 22.2 µM | – | – | > 25.2 µM | > 53.7 µM | – | – | > 100 µM |
| COC(=O)c1c[nH]cc1CCCCc1c[nH]cc1C(=O)OC | > 100 µM | – | – | – | > 100 µM | – | – | > 100 µM | > 100 µM | – | – | > 100 µM |

Source: PubChem BioAssay (NCI)
